# T1: Cdk7 (Rattus norvegicus, UniProt P51952)
# T1 construct: endogenous in cells; host or cells: neonatal rat ventricular myocytes; immunoprecipitated with polyclonal rabbit anti-Cdk7 and protein A-Sepharose
# T1 sequence (P51952 1-329): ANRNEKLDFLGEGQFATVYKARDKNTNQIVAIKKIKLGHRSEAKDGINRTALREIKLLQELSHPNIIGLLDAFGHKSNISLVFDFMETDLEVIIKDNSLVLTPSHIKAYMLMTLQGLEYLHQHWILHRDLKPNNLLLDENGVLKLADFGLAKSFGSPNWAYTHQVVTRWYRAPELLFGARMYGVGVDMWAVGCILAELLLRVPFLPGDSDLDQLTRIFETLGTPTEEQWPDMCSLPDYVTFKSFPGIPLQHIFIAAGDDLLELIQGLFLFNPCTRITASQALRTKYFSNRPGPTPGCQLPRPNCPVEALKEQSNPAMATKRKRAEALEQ
# T1 sequence (Q9R1A0 1-323 partner): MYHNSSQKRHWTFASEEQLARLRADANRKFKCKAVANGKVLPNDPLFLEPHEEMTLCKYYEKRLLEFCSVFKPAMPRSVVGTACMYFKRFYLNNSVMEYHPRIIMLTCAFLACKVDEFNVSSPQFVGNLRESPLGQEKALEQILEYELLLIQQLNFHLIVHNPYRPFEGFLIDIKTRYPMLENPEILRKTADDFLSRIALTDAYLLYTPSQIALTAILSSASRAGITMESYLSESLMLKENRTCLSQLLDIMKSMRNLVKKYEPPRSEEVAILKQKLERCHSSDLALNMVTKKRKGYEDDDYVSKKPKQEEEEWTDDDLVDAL
# Tests used:
# Cdk9 [1] = biological target: Cdk9 (Homo sapiens, UniProt P50750); settings: Zhu et al., 1997; cited from earlier work
# pol II CTD = experiment: Western blotting of pol II CTD phosphorylation in cultured ventricular myocytes; format: cell-based, rat; settings: for hyperphosphorylation of pol II: serum-starved 24 hr, stimulated 15 min, ET-1 0.1 μM, PE 0.1 μM, HB-EGF 1 nM
# Experimental: Western blotting was performed using the identical cell lysates. The following antibodies were used: rabbit antibodies against pol II, Cdk7, Cyclin H, MAT1, CyclinT1, Hsp70, Hsp90 and Cdc37; goat antibody against Cyclin T2a/b; and mouse monoclonal antibodies to the Ser2 and Ser5 CTD phoshopeptides (Patturajan et al., 1998; Herrmann et al., 2001). Protein expression was visualized using horseradish peroxidase-conjugated second antibodies and enhanced chemiluminescence reagents (Amersham Pharmacia Biotech).
# (§1) Neonatal ventricular myocytes from 1 to 2 day-old Sprague-Dawley rats were subjected to Percoll gradient centriftigation and differential plating, to enrich for cardiac myocytes and deplete nonmyocytes (Oh et al., 2001). Cells were infected for 6 hr, after overnight culture, at a multiplicity of infection (MOI) of 20, then were cultured in serum-free medium for an additional 24 hr before the addition of agonists. The efficiency of viral gene transfer is >95% under the conditions used. DRB (Sigmna) was dissolved in dimethylsulfoxide (DMSO) and then in culture medium to the desired final concentration in 0.1% (vol/vol) DMSO.
# Briefly, ventricular myocytes were analyzed by Western blotting as in Example 1. Ventricular myocytes were serum-starved for 24 hr, stimulated for 15 min with ET-1 (0.1 μM), PE (0.1 μM), HB-EGF (1 nM), or the vehicle, and analyzed by Western blotting with antibody to the pol II CTD. Ventricular myocytes were stimulated with ET-1 for the indicated times.
# (§2) Next, cells were preincubated with DRB for 2 hr at the concentrations shown, and were assayed for pol II phosphorylation after stimulation with ET-1 for 15 min or the indicated intervals. Immune complexes were treated in vitro with 50 μM DRB and assayed by phosphorylation of the recombinant GST-CTD substrate. […] Based on this effect, 50 μM DRB was added in vitro to cardiac Cdk9 and Cdk7 immune complexes, and assayed for its effect on phosphorylation of the recombinant CTD substrate.
# cardiac myocytes [2] = experiment: Myocyte size visualized with eGFP; format: cell-based, rat; settings: DRB pretreatment, ET-1 stimulation
# Experimental: as §1
# (§3) Hypertrophy was monitored as [^3H]uridine incorporation (FIG. 2F, FIG. 2H; n=4 per group) and [^3H]phenylalanine incorporation (FIG. 2I; n=6 per group), corrected for DNA content. Myocyte size was visualized with eGFP (FIG. 2G, FIG. 2J). Bar, 100 μm.
# cardiac myocytes [3] = experiment: [3H]uridine incorporation (RNA synthesis) in cardiac myocytes; format: cell-based, rat
# Experimental: as §1
# Cells were incubated for 24 hr with 1 μCi/ml of either precursor, in the absence or presence of ET-1 and [^3H]uridine and [^3H]phenylalanine incorporation was measured. Total RNA was extracted using TRIzol (Invitrogen), for simultaneous extraction of DNA from the samples.
# as §3
# Cdk9 [4] = biological target: T2, Cdk9 (Rattus norvegicus, UniProt Q641Z4); experiment: Immune complex CTD kinase assay (GST-CTD substrate), Cdk9; format: biochemical
# T2 construct: endogenous in cells; host or cells: neonatal rat ventricular myocytes; immunoprecipitated with polyclonal rabbit anti-Cdk9 and protein A-Sepharose
# Experimental: (§4) Immune complex kinase assays were performed as described (Yang et al., 1996), using polyclonal rabbit antibody against Cdk7 or Cdk9 together with protein A-Sepharose. Kinase assays were performed by adding 25 μl of 50 mM Tris-HCl [pH 7.4], 10 mM MgCl2, 5 mM dithiothreitol, 2.5 mM MnCl2, 5 μM ATP, 5 μCi of [γ-^32P]ATP, and 200 ng of GST-CTD to the beads and incubating at room temperature for 60 min. The complexes were resolved by SDS-polyacrylamide gel electrophoresis, and CTD phosphorylation was visualized by autoradiography and quantified using a phosphorimager and ImageQuant version 5.2 (Molecular Dynamics). Where indicated, immunoprecipiates were incubated with 50 μg/ml of bovine pancreas ribonuclease A (RNase A; Sigma) for 60 min prior to the CTD kinase assay.
# as §2
# Cdk7 = biological target: T1, Cdk7; experiment: Immune complex CTD kinase assay (GST-CTD substrate), Cdk7; format: biochemical; settings: 50 μM DRB added in vitro to cardiac immune complexes
# Experimental: as §4, §2
# cardiac myocytes [5] = experiment: Myocyte apoptosis by flow cytometry (hypodiploid DNA); format: cell-based
# Text: Myocyte apoptosis was monitored by flow cytometry as hypodiploid DNA, using FITC-conjugated MF20 antibody to sarcomeric myosin heavy chains and propidium iodide in the presence of RNase A (Oh et al., 2001).
# [6] = tested on: mitogen-activated protein kinases; experiment: Phosphorylation of mitogen-activated protein kinases in cultured cardiac myocytes; format: cell-based, rat; settings: 50 μM DRB
# cyclin T/Cdk9 complex = experiment: Co-precipitation of 7SK snRNA with cyclin T/Cdk9 (RT-PCR of immune complexes); format: cell-based, rat; settings: cardiac myocytes treated with ET-1
# Experimental: Total RNA was isolated from Cdk9, cyclin T1, cyclin T2, and Cdk7 immune complexes using TRIzol and subjected to DNase I (Invitrogen) for 15 min at room temperature, followed by reverse transcription using antisense oligonucleotides for 7SK snRNA. The PCR primers were: sense, (SEQ. ID. NO. 3) […]; antisense, (SEQ. ID. NO. 4) […]. PCR products were subjected to electrophoresis on 2% agarose gel and stained with ethidium bromide.
# ET-1 caused the rapid loss of Cdk9-associated 7SK snRNA, within 15 min. These findings were substantiated using each of three antibodies to the cyclin T/Cdk9 complex. Levels of 7SK RNA in the corresponding total cell lysates were unchanged. […] Thus, hypertrophic signals in cultured cardiac myocytes and the intact heart induce the dissociation of 7SK RNA from endogenous cyclin T/Cdk9. […] Conversely, endogenous cyclin T/Cdk9 was recovered from cardiac lysates using streptavidin-agarose plus a biotinylated 2′-O-methyl (2′-OMe) oligonucleotide complementary to 7SK snRNA (FIG. 3G): this method confirmed independently the dissociation of 7SK snRNA from cardiac cyclin T/Cdk9 for Gq and calcineurin.
# [7] = biological target: cyclin dependent kinase 9 (Cdk9) (endogenous, mouse myocardium) (mouse) (UniProt Q99J95); experiment: cell-based or functional assay
# [8] = 50 μM, cardiac myocytes, [3H]uridine incorporation
# [9] = antisense knockdown of 7SK snRNA, 48 hr after transfection, cardiac myocytes
# Sequence of cyclin dependent kinase 9 (Cdk9) (endogenous, mouse myocardium) (mouse) (Q99J95 whole entry): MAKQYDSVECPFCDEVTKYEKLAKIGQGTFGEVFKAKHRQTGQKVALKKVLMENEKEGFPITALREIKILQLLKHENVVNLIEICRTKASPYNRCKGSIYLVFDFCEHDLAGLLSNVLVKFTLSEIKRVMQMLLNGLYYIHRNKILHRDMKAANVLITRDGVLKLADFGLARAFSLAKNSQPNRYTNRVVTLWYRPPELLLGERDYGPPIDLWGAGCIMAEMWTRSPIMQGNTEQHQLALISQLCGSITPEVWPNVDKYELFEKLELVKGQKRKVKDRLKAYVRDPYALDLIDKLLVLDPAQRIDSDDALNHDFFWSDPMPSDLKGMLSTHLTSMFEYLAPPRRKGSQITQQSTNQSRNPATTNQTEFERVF
# T2 sequence (Q641Z4 whole entry): as the sequence (Q99J95 whole entry) above
# Sequence of Cdk9 (Homo sapiens, UniProt P50750) (P50750 whole entry, species assumed): as the sequence (Q99J95 whole entry) above, with T17S, K37R, Q40K, K258N, F262Y counted along it
# Sequence of Cdk9 (Homo sapiens, UniProt P50750) (O60563 whole entry partner, species assumed): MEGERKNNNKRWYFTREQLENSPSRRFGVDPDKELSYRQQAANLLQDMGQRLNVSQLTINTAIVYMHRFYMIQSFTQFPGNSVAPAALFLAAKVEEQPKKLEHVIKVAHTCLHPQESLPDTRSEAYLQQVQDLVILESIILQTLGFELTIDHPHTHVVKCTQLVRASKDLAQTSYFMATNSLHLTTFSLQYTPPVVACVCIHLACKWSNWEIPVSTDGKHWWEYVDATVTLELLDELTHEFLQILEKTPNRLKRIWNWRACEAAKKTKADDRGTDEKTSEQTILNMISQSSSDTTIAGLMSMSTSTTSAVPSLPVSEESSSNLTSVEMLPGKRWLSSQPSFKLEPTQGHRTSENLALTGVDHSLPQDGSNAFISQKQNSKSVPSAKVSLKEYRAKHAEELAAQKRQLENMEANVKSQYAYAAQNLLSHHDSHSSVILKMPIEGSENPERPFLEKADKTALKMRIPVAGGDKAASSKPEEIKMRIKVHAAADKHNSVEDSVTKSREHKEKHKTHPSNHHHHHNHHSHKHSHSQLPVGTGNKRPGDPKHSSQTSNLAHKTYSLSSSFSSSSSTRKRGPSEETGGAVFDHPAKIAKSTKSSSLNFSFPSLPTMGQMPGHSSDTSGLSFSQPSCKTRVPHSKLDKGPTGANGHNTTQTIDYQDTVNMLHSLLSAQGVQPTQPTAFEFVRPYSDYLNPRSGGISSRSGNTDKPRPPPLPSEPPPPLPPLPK
molecule,measurement,setting,value
"OC[C@H]1O[C@@H](n2cnc3cc(Cl)c(Cl)cc32)[C@H](O)[C@@H]1O [DRB, 5,6-dichloro-1-beta-D-ribofuranosylbenzimidazole]",selectivity among CTD kinases,Cdk9 [1],selective activity against Cdk9
same,ET-1-induced pol II phosphorylation,"pol II CTD; 50 μM DRB, preincubated 2 hr, ET-1 15 min, cultured cardiac myocytes",inhibited
same,ET-1-associated increase in myocyte size,cardiac myocytes [2],blocked
same,inhibition of ET-1 induced RNA synthesis,cardiac myocytes [3]; [8],~80%
same,inhibition of basal RNA synthesis,cardiac myocytes [3]; [8],~80%
same,Cdk9 activity (phosphorylation of recombinant CTD substrate),Cdk9 [4]; 50 μM DRB added in vitro to cardiac immune complexes,blocked Cdk9 activity almost completely
same,Cdk7 activity (phosphorylation of recombinant CTD substrate),Cdk7,little or no effect
same,apoptosis,cardiac myocytes [5]; conditions sufficient to block ET-1 induction of pol II phosphorylation almost completely,no increase in apoptosis
same,cell death,cardiac myocytes [5]; higher concentrations that block RNA synthesis more completely,did induce cell death
same,phosphorylation of mitogen-activated protein kinases downstream of ET-1,[6],without impairing
endothelin-1 [ET-1],increase in proportion of pol IIo,"pol II CTD; ET-1 time course, peak at 15 min, from 4% at baseline",9 fold
same,maximum proportion of pol IIo,"pol II CTD; ET-1 time course, peak at 15 min, baseline 4%",36%
same,preferred CTD heptad residue phosphorylated,"pol II CTD; phospho-epitope specific antibodies, Ser2 vs Ser5",preferentially induce phosphorylation at Ser2
same,hyperphosphorylation of pol II,pol II CTD,induced
same,time to loss of Cdk9-associated 7SK snRNA,cyclin T/Cdk9 complex,≤ 15 min
same,augmentation of [3H]uridine incorporation,"cardiac myocytes [3]; control eGFP-infected myocytes, 24 hr",one-third
same,Cdk9 CTD kinase activity,Cdk9 [4]; ventricular myocytes stimulated with ET-1 for 15 min,increased
mouse cyclin T1 (cardiac-specific αMHC-cyclin T1 transgene) (from UniProt Q9QWV9 1-724),"Cdk9 activity (immune complex CTD kinase assay), high-expression transgenic line",[7],6 fold
same,"Cdk9 activity (immune complex CTD kinase assay), low-expression transgenic line",[7],2 fold
same,"baseline Cdk9 activity (immune complex kinase assay), cyclin T1 mice versus wild-type littermates",[7],4.4 fold
"CNC[C@H](O)c1cccc(O)c1 [PE, phenylephrine]",hyperphosphorylation of pol II,pol II CTD,induced
"antisense 7SK: antisense phosphorothioate oligonucleotide, SEQ. ID. NO. 1, 5′-CCTTGAGAGCTTGTTTGG AGG-3′, against 7SK snRNA (antisense CCTTGAGAGCTTGTTTGGAGG; all phosphorothioate, sugars by position and methylation of C not given here)",uridine incorporation,cardiac myocytes [3]; [9],as large an increase in uridine incorporation as did ET-1 itself
same,endogenous Cdk9 activity,Cdk9 [4]; [9],markedly increased
"heparin-binding epidermal growth factor (protein, UniProt Q99075 63-148, looked up, member of the EGF family, secreted mediator of growth signals in the heart) Heparin-binding EGF-like …: DLQEADLDLLRVTLSSKPQALATPNKEEHGKRKKKGKGLGKKRDPCLRKYKDFCIHGECKYVKELRAPSCICHPGYHGERCHGLSL",hyperphosphorylation of pol II,pol II CTD,induced
"RNase A: bovine pancreas ribonuclease A (Sigma) (protein, UniProt P61823 27-150, looked up) Ribonuclease pancreatic: KETAAAKFERQHMDSSTSAASSSNYCNQMMKSRNLTKDRCKPVNTFVHESLADVQAVCSQKNVACKNGQTNCYQSYSTMSITDCRETGSSKYPNCAYKTTQANKHIIVACEGNPYVPVHFDASV",Cdk9 kinase activity after treatment of immune complexes,"Cdk9 [4]; RNase A 50 μg/ml 60 min, control cells, GST-CTD substrate",levels even higher than did ET-1

# Reference: patent US20040106647A1, “Modulators of Cdk9 as a therapeutic target in cardiac hypertrophy” (priority 2002, published 2004)
